The values that follow come from ChEMBL document CHEMBL3297704, “Theophylline-7-acetic acid derivatives with amino acids as anti-tuberculosis agents” (Bioorg Med Chem Lett, 2014).

Converted amounts (≈) assume the structure as drawn. Where a name gives a salt, the structure may show the parent alone.

The test system of the first assay is HEK-293T. As to the kind of experiment: Cytotoxicity against human 293T cells after 72 hrs by MTT assay. In kind it is cell-based.
One may read the IC50 as the concentration that gives 50% inhibition. On to `COC(=O)[C@H](Cc1cc2ccccc2[nH]1)NC(=O)Cn1cnc2c1c(=O)n(C)c(=O)n2C`, for which the IC50 is greater than 400 µM.
Still for that read-out and setting: to `C[C@H](NC(=O)Cn1cnc2c1c(=O)n(C)c(=O)n2C)C(=O)O` belongs greater than 400 µM; to `Cn1c(=O)c2c(ncn2CC(=O)N[C@@H](Cc2cc3ccccc3[nH]2)C(=O)O)n(C)c1=O`, greater than 400 µM.

The subject of another assay is Mycobacterium tuberculosis. As to the kind of experiment: Antituberculosis activity against Mycobacterium tuberculosis H37Rv assessed as inhibition of bacterial growth after 45 days. It counts as functional.
Broadly, the MIC is the smallest concentration in the dilution series that meets the test's criterion for growth inhibition. On to `COC(=O)[C@H](Cc1cc2ccccc2[nH]1)NC(=O)Cn1cnc2c1c(=O)n(C)c(=O)n2C`, for which the MIC was found to be 0.46 µM (≈ 0.202 µg/mL).
As for `CC[C@@H](CO)NCCN[C@@H](CC)CO` [ETHAMBUTOL HYDROCHLORIDE], the MIC is 7.22 µM.
Take `C[C@H](NC(=O)Cn1cnc2c1c(=O)n(C)c(=O)n2C)C(=O)O`: the MIC is 0.65 µM (≈ 0.201 µg/mL).
Same read-out and setting: to `Cn1c(=O)c2c(ncn2CC(=O)N[C@@H](Cc2cc3ccccc3[nH]2)C(=O)O)n(C)c1=O` belongs 0.47 µM (≈ 0.199 µg/mL).
